Experimental data published in ChEMBL document CHEMBL1201862, “PubChem BioAssay data set” (2004).
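Each compound was tested at five concentrations against cells in 96-well plates for 48 hours. GI50: concentration for 50% inhibition of growth.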 Activity calls are given as the source filed them. Rule as the data show it: active = GI50 up to about 1.1 µM and inactive = higher.

What was measured:
Experiment in all cases: growth of human tumour cells (NCI), 48 h
SNB-75 = tested on: SNB-75
EKVX = tested on: EKVX
TK-10 = tested on: TK-10
MOLT-4 = tested on: MOLT-4
SF-268 = tested on: SF-268
NCI-H522 = tested on: NCI-H522
HCT-15 = tested on: HCT-15
SW-620 = tested on: SW-620
SN12C = tested on: SN12C
NCI-H460 = tested on: NCI-H460
SF-539 = tested on: SF-539
HCT-116 = tested on: HCT-116
RXF 393 = tested on: RXF 393
HT-29 = tested on: HT-29
HOP-92 = tested on: HOP-92
Malme-3M = tested on: Malme-3M
SF-295 = tested on: SF-295
NCI-H23 = tested on: NCI-H23
HOP-62 = tested on: HOP-62
LOX IMVI = tested on: LOX IMVI

Row | Structure (SMILES) | GI50 (SNB-75) | GI50 (EKVX) | GI50 (TK-10) | GI50 (MOLT-4) | GI50 (SF-268) | GI50 (NCI-H522) | GI50 (HCT-15) [µM] | GI50 (SW-620) | GI50 (SN12C) | GI50 (NCI-H460) | GI50 (SF-539) | GI50 (HCT-116) | GI50 (RXF 393) | GI50 (HT-29) | GI50 (HOP-92) | GI50 (Malme-3M) | GI50 (SF-295) | GI50 (NCI-H23) | GI50 (HOP-62) | GI50 (LOX IMVI)
1 | Cc1ccc2c(c1C)C(=O)C1(Cc3cc4c(cc3C1=O)CCC4)C2 (stereo not given) | > 100 µM (inactive) | > 100 µM (inactive) | > 100 µM (inactive) | > 100 µM (inactive) | > 100 µM (inactive) | > 100 µM (inactive) | > 100 | > 100 µM (inactive) | > 100 µM (inactive) | > 100 µM (inactive) | 0.726 µM (active) | > 100 µM (inactive) | 99.8 µM (inactive) | > 100 µM (inactive) | > 100 µM (inactive) | > 100 µM (inactive) | > 100 µM (inactive) | > 100 µM (inactive) |  | 
2 | COc1cc(CN(C)N2C(=O)c3cccc4cc([N+](=O)[O-])cc(c34)C2=O)cc(OC)c1OC | 25.2 µM (inactive) |  |  | 27.6 µM (inactive) |  | 70.3 µM (inactive) | > 100 |  | > 100 µM (inactive) | > 100 µM (inactive) |  |  | 14.1 µM (inactive) | > 100 µM (inactive) | > 100 µM (inactive) | > 100 µM (inactive) | 54.6 µM (inactive) | > 100 µM (inactive) | 16.7 µM (inactive) | 
3 | COc1ccc(N2C(=O)C3ON(Cc4ccc(CC(N)=O)cc4)C(c4c5ccccc5c(C)c5ccccc45)C3C2=O)cc1 (stereo not given) | 14.4 µM (inactive) | 20.9 µM (inactive) | 17.8 µM (inactive) | 2.2 µM (inactive) | 38.7 µM (inactive) | 20 µM (inactive) | 17.1 | 25.9 µM (inactive) | 33.7 µM (inactive) | 13.6 µM (inactive) |  | 17.9 µM (inactive) | 14.2 µM (inactive) | 12.9 µM (inactive) | 19 µM (inactive) | 35.8 µM (inactive) | 22 µM (inactive) | 32.7 µM (inactive) | 40.4 µM (inactive) | 26.4 µM (inactive)
4 | COC(=O)[C@@H]1CO[C@H](C(C)(C)C)N1C(=O)N1C=CC(=O)C[C@H]1C | > 100 µM (inactive) | > 100 µM (inactive) | > 100 µM (inactive) | > 10 µM (inactive) | > 100 µM (inactive) | > 100 µM (inactive) |  | > 100 µM (inactive) | > 100 µM (inactive) |  |  | > 100 µM (inactive) | > 100 µM (inactive) | > 100 µM (inactive) | > 100 µM (inactive) | > 100 µM (inactive) | > 100 µM (inactive) | > 100 µM (inactive) | > 100 µM (inactive) | > 100 µM (inactive)
5 | COc1ccc(C(=C(I)c2ccccc2)c2ccc(OC)cc2)cc1 |  | > 100 µM (inactive) | > 100 µM (inactive) | > 100 µM (inactive) | > 100 µM (inactive) | > 100 µM (inactive) | 65.6 | > 100 µM (inactive) | > 100 µM (inactive) | > 100 µM (inactive) | > 100 µM (inactive) | 51.3 µM (inactive) | > 100 µM (inactive) | 7.23 µM (inactive) | > 100 µM (inactive) | > 100 µM (inactive) | > 100 µM (inactive) | > 100 µM (inactive) | > 100 µM (inactive) | > 100 µM (inactive)
6 | CCCNC1=C2C[C@@H](C)C[C@@H](OC)[C@@H](OC(=O)CCCN)[C@H](C)/C=C(\C)[C@@H](OC(N)=O)[C@H](OC)/C=C\C=C(/C)C(=O)NC(=CC1=O)C2=O |  | 17.6 µM (inactive) | 17.9 µM (inactive) | 6.9 µM (inactive) | 15.3 µM (inactive) | 5.02 µM (inactive) | 21.5 | 10.6 µM (inactive) | 22.7 µM (inactive) | 11.2 µM (inactive) | 20.3 µM (inactive) | 8.97 µM (inactive) | 11.8 µM (inactive) | 7.05 µM (inactive) | 12.7 µM (inactive) | 12.4 µM (inactive) | 18.7 µM (inactive) | 11.6 µM (inactive) | 15.6 µM (inactive) | 16 µM (inactive)
7 | COc1cccc(NC(=O)C(=O)C(C(=O)c2ccccc2F)C2OC(=O)c3ccccc32)c1 (stereo not given) | 24.9 µM (inactive) | 41.8 µM (inactive) | > 100 µM (inactive) | 25.4 µM (inactive) | 30.5 µM (inactive) | 16.1 µM (inactive) | 28.7 | 42.6 µM (inactive) | 18.7 µM (inactive) | 35.1 µM (inactive) | 21.3 µM (inactive) | 20 µM (inactive) | 28.1 µM (inactive) | 34.3 µM (inactive) | > 100 µM (inactive) |  | 37.7 µM (inactive) | 29.6 µM (inactive) | 42.2 µM (inactive) | 29.9 µM (inactive)
8 | Cc1ccc(/N=N/c2c(O)ccc3cc(S(=O)(=O)O)ccc23)c(C)c1 | > 100 µM (inactive) | > 100 µM (inactive) | > 100 µM (inactive) | > 100 µM (inactive) | > 100 µM (inactive) | > 100 µM (inactive) | > 100 | > 100 µM (inactive) | > 100 µM (inactive) | > 100 µM (inactive) | > 100 µM (inactive) | > 100 µM (inactive) | > 100 µM (inactive) | > 100 µM (inactive) | > 100 µM (inactive) | > 100 µM (inactive) | > 100 µM (inactive) | > 100 µM (inactive) | > 100 µM (inactive) | 
9 | COc1c2cc(C(C)(C)C)cc1Cc1cccc(c1O)Cc1cc(C(C)(C)C)cc(c1OC)Cc1cccc(c1O)Cc1cc(C(C)(C)C)cc(c1OC)Cc1cccc(c1O)C2 | > 100 µM (inactive) | > 100 µM (inactive) |  | > 100 µM (inactive) | > 100 µM (inactive) | > 100 µM (inactive) | > 100 | > 100 µM (inactive) | > 100 µM (inactive) | > 100 µM (inactive) | > 100 µM (inactive) | > 100 µM (inactive) | > 100 µM (inactive) | > 100 µM (inactive) | > 100 µM (inactive) | > 100 µM (inactive) | > 100 µM (inactive) | > 10 µM (inactive) | > 100 µM (inactive) | 
10 | O=C1CSC2(CC(/C=C/C=C/c3ccccc3)=NN2c2cccc(S(=O)(=O)O)c2)N1c1nc2ccccc2s1 (stereo not given) | > 100 µM (inactive) | 49 µM (inactive) | 34.5 µM (inactive) | 21.2 µM (inactive) |  | 4.71 µM (inactive) | 67.9 | 56.2 µM (inactive) | 62.5 µM (inactive) | 31.3 µM (inactive) | 51.1 µM (inactive) | 46.5 µM (inactive) | > 100 µM (inactive) | 64.3 µM (inactive) | 34.8 µM (inactive) |  |  | 43.8 µM (inactive) |  | 20 µM (inactive)
11 | O=S(=O)(c1ccc2ccccc2c1)N1CCN(S(=O)(=O)c2ccc3ccccc3c2)CC1 | 18.9 µM (inactive) | > 100 µM (inactive) | > 100 µM (inactive) |  | > 100 µM (inactive) | > 100 µM (inactive) | > 100 | > 100 µM (inactive) | > 100 µM (inactive) | > 100 µM (inactive) |  | > 100 µM (inactive) | > 100 µM (inactive) | > 100 µM (inactive) | 34.6 µM (inactive) | > 100 µM (inactive) | > 100 µM (inactive) | > 100 µM (inactive) | 33.5 µM (inactive) | > 100 µM (inactive)
